In brackets after ≈: the same amount, converted by molar mass.

This is an account of results in ChEMBL document CHEMBL1137628, “Bactericidal activity of extended 9-glycyl-amido-minocyclines” (2007).

For this assay, the system named is Staphylococcus aureus. Nature of the assay: Antibacterial activity against Staphylococcus aureus Rosenbach after 14 hrs. Type of assay: functional.

Broadly, the MIC is the lowest concentration that inhibits growth of the organism. Low readings indicate a more susceptible organism, high ones a less susceptible organism. `CN(C)c1cc(N)c(O)c2c1C[C@H]1C[C@H]3[C@H](N(C)C)C(O)=C(C(N)=O)C(=O)[C@@]3(O)C(O)=C1C2=O`: the MIC turned out to be 2 mg/L (≈ 4.23 µM).
To `CN(C)c1cc(NC(=O)CN)c(O)c2c1C[C@H]1C[C@H]3[C@H](N(C)C)C(O)=C(C(N)=O)C(=O)[C@@]3(O)C(O)=C1C2=O` belongs 2 mg/L (≈ 3.78 µM); to `CN(C)c1cc(NC(=O)CNN)c(O)c2c1C[C@H]1C[C@H]3[C@H](N(C)C)C(O)=C(C(N)=O)C(=O)[C@@]3(O)C(O)=C1C2=O`, 2 mg/L (≈ 3.67 µM).
The compound `CN(C)c1ccc(O)c2c1C[C@H]1C[C@H]3[C@H](N(C)C)C(O)=C(C(N)=O)C(=O)[C@@]3(O)C(O)=C1C2=O` [MINOCYCLINE] registered a minimal inhibitory concentration (MIC) of 0.125 mg/L (≈ 0.273 µM).
